Marks after values point to notes of the source that are not given here.
What was measured:
[1] = in methanolic aqueous solution (1:5-mixture); cited from earlier work
[2] = Kinetics of IChU reactions with reference electrophile (ind)2CH+ (stopped-flow photometry); type: physicochemical; settings: E = −8.76, dichloromethane, 20 °C
From the text: (§1) In order to systematically investigate the influence of the chalcogen atom on the nucleophilicity of DHPB‐derived IChUs (Ch = O, S, Se, and Te), we utilized Mayr's benzhydrylium methodology.^[ [107] ^]
(§2) In accordance with observations in previous studies on ITU reactivity,^[ [119] ^] mixing the strongly colored benzhydrylium tetrafluoroborates 18 with excess IChUs in dichloromethane gave rise to decolorization of the solutions due to the formation of isochalcogenouronium tetrafluoroborates 19, which are colourless (Figure 3a). Owing to reversibility of the C─N bond formation, generated adducts 19 from the IChU/benzhydrylium reactions were not isolated but characterized by ^1H, ^13C, and ^77Se NMR spectroscopy (the ^77Se nucleus is remarkably sensitive with observed changes of around 100 ppm when comparing the ^77Se resonances of free ISeUs with those of the corresponding selenouronium tetrafluoroborates^[ [95] ^]). The kinetics of the IChU reactions with the reference electrophiles 18 were traced by photometric methods using standard stopped‐flow techniques. To establish pseudo first‐order conditions and to secure a sufficient decay of the benzhydrylium's absorbance during the course of the reactions, the IChUs were employed at higher concentrations than the benzhydrylium ions. First‐order rate constants k obs (s^−1) were determined by fitting the mono‐exponential decay function in Equation (2) to the decreasing absorbance (A) of 18 during their reaction with the IChUs as exemplified for the reaction of ITeU3 with (ind)2CH^+ in Figure 3b. (2) A=A0e^−kobst+C […]
(§3) First‐order rate constants k obs correlated linearly with the IChU concentration. Therefore, second‐order rate constants k 2 (L mol^−1 s^−1) were determined from the slope of the linear regression curves (Figure 3c ^[ [95] ^]). Second‐order rate constants k 2 for all kinetically investigated reactions of DHPB‐derived IChUs (Ch = O, S, Se, and Te) with benzhydrylium ions 18 are gathered in Table 1.
(§4) Apart from CH2Cl2 also MeCN and THF are solvents that are commonly employed in reactions involving isochalcogenoureas. […]

[3] = Mayr nucleophilicity parameters N and sN (benzhydrylium methodology, Mayr-Patz equation); type: physicochemical; settings: dichloromethane, 20 °C
From the text: (1) Mayr-Patz Equation: lgk20^∘C=sN(N+E)
The MPE is a linear‐free‐energy relationship that characterizes electrophiles by the electrophilicity parameter E and nucleophiles by the solvent‐dependent parameters N (nucleophilicity) and s N (sensitivity toward changes in the electrophile reactivity). By using the MPE (Equation (1)), the construction of comprehensive nucleophilicity and electrophilicity scales becomes possible, which facilitate the comparison of various classes of Lewis base organocatalysts.^[ [110], [111], [112], [113], [114], [115], [116], [117], [118], [119], [120] ^]
as §1
Figure 4 illustrates the linear correlations of the second‐order rate constants (lg k 2) with the electrophilicities E of Ar2CH^+ (18), which makes it possible to determine the Mayr nucleophilicity parameters N (and s N) for the DHPB‐derived IChUs IU3, ITU3, ISeU3, and ITeU3. […]
Figure 4 Linear correlations of second‐order rate constants (lg k 2) for the reactions of IU3, ITU3, ISeU3, and ITeU3 with Ar2CH^+ 18 (in dichloromethane at 20 °C) with the electrophilicities E of 18. The slopes of the linear correlations equal the nucleophile‐dependent sensitivity parameter s N. Intercepts on the abscissa reflect the nucleophilicity parameter N (N = –E at lg k 2 = 0).

[4] = Kinetics of IChU reactions with reference electrophile (pyr)2CH+ (stopped-flow photometry); type: physicochemical; settings: E = −7.69, dichloromethane, 20 °C
From the text: as §1, §2, §3, §4

[5] = Kinetics of IChU reactions with reference electrophile (dma)2CH+ (stopped-flow photometry); type: physicochemical; settings: E = −7.02, dichloromethane, 20 °C
From the text: as §1, §2, §3, §4

[6] = Lewis basicity LB from equilibrium constants (photometric titrations) with benzhydrylium ions as reference Lewis acids; type: physicochemical; set-up: key: Mayr Lewis basicity scale; LB from K and reference LA via Eq. (3); settings: in dichloromethane, 20 °C
Description: (a) Lewis basicity. Previously, the Mayr group established a series of benzhydrylium ions as C‐centered Lewis acid references to construct a Lewis basicity scale in dichloromethane. Substituting experimentally determined equilibrium constants K (at 20 °C) and reported Lewis acidities LA for the benzhydrylium ions (Figure 7) in Equation (3) enables one to calculate the Lewis basicity (LB) of a Lewis base.^[ [121], [127] ^] (3) lgK(20^∘C)=LA+LB
The reversibility of the formation of adducts 19 (Equation (4)), which was also apparent in the kinetics by significant positive intercepts in several of the k obs versus [IChU] plots (Supporting Information), provided the opportunity to probe the thermodynamics of the C‐N bond‐forming reactions of IChUs with benzhydrylium ions as the reference Lewis acids in more detail.^[ [95] ^] (4) IChU+Ar2CH^+(18)⇌Ar2CH-IChU^+(19)
By assuming the validity of the Beer–Lambert law for dilute solutions, equilibrium constants K (L mol^−1) were determined in photometric titrations according to Equation (5) from the initial absorbance (A 0) of the benzhydrylium ions 18 and the absorbance at equilibrium (A, Equation 5), that is, after addition of a certain amount of an IChU.^[ [109], [110], [111], [112], [113], [114], [115], [119] ^] (5) K=[19]/[18]IChU=A0−A/AIChU

| SMILES | Brønsted basicity pKaH(H2O) [1] | Second-order rate constant k2 exptl [2] [M⁻¹ s⁻¹] | Nucleophile-specific sensitivity parameter sN [3] | Nucleophilicity parameter N [3] | Second-order rate constant k2 exptl [4] [M⁻¹ s⁻¹] | Second-order rate constant k2 exptl [5] [M⁻¹ s⁻¹] | Lewis basicity LB [6] |
| --- | --- | --- | --- | --- | --- | --- | --- |
| c1ccc2c(c1)[Se]C1=NCCCN12 [ISeU3, SeDHPB] | >11 ^c) | 18100 | 0.66 | 15.16 | 107000 | 194000 | 15.54 |
| c1ccc2c(c1)OC1=NCCCN12 [IU3, ODHPB] | 8.8 ^c) | 1200 | 0.69 | 13.31 | 7930 | 27900 | 13.66 |
